Data taken from PubChem BioAssay AID2060605 (Molecular Pharmacology Branch, DTP, NCI, 2025).
“And” between values parts separate entries of the source, which are not always exact repeats. Identical values can stand only once. Values belong to the molecule of their own block, whether it stands above or below them.

Test system: 947758-054-R-J2-PDC spheroid growth, percent test/control
Assay: Anticancer human tumor 947758-054-R-J2-PDC patient-derived colon adenocarcinoma cell line growth inhibition [CLK]
Conditions: spheroids with HUVEC and MSC; for viability, T/C: stronger effect = lower value
Outline: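 Patient-derived tumor cells grown as complex spheroids with HUVEC endothelial cells and mesenchymal stem cells, treated with drug combinations. Concentrations descend in half-log steps from near clinical Cmax, or from 10 microM if Cmax unknown.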

[1] = curve of first compound, second compound 0.0316 µM
[2] = curve of first compound, second compound 0.1 µM
[3] = curve of first compound, second compound 0.316 µM
[4] = curve of first compound, second compound 1 µM
[5] = curve of first compound, second compound 3.16 µM
[6] = curve of first compound, second compound 10 µM
[7] = second compound 0.0316 µM, first compound 0.0316 µM
[8] = second compound 0.0316 µM, first compound 0.1 µM
[9] = second compound 0.0316 µM, first compound 0.316 µM
[10] = second compound 0.0316 µM, first compound 1 µM
[11] = second compound 0.1 µM, first compound 0.0316 µM
[12] = second compound 0.1 µM, first compound 0.1 µM
[13] = second compound 0.1 µM, first compound 0.316 µM
[14] = second compound 0.1 µM, first compound 1 µM
[15] = second compound 0.316 µM, first compound 0.0316 µM
[16] = second compound 0.316 µM, first compound 0.1 µM
[17] = second compound 0.316 µM, first compound 0.316 µM
[18] = second compound 0.316 µM, first compound 1 µM
[19] = second compound 1 µM, first compound 0.0316 µM
[20] = second compound 1 µM, first compound 0.1 µM
[21] = second compound 1 µM, first compound 0.316 µM
[22] = second compound 1 µM, first compound 1 µM
[23] = second compound 3.16 µM, first compound 0.0316 µM
[24] = second compound 3.16 µM, first compound 0.1 µM
[25] = second compound 3.16 µM, first compound 0.316 µM
[26] = second compound 3.16 µM, first compound 1 µM
[27] = second compound 10 µM, first compound 0.0316 µM
[28] = second compound 10 µM, first compound 0.1 µM
[29] = second compound 10 µM, first compound 0.316 µM
[30] = second compound 10 µM, first compound 1 µM
[31] = second compound 0.0316 µM, first compound 0.00316 µM
[32] = second compound 0.0316 µM, first compound 0.01 µM
[33] = second compound 0.1 µM, first compound 0.00316 µM
[34] = second compound 0.1 µM, first compound 0.01 µM
[35] = second compound 0.316 µM, first compound 0.00316 µM
[36] = second compound 0.316 µM, first compound 0.01 µM
[37] = second compound 1 µM, first compound 0.00316 µM
[38] = second compound 1 µM, first compound 0.01 µM
[39] = second compound 3.16 µM, first compound 0.00316 µM
[40] = second compound 3.16 µM, first compound 0.01 µM
[41] = second compound 10 µM, first compound 0.00316 µM
[42] = second compound 10 µM, first compound 0.01 µM
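Note: spheroids exposed to compounds for one week before readout.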
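Throughout, for viability, T/C: 100% = DMSO vehicle control wells.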

IC50 [1]: 6100 nM
IC50 [2]: 4950 nM
IC50 [3]: 3830 nM
IC50 [4]: < 31.6 nM
IC50 [5]: < 31.6 nM
IC50 [6]: < 31.6 nM
Compound: C=C(F)C(=O)N1CCN(c2nc(OCC3CCCN3C)nc3c2CCN(c2cccc4cccc(Cl)c24)C3)CC1CC#N (stereo not drawn) + CNC(=O)c1ccc(Nc2nc(OC3CCCC3)c3c(-c4ccc5nc(C)oc5c4)c[nH]c3n2)c(OC)c1
viability, T/C [7]: 88.6%
viability, T/C [8]: 66.7%
viability, T/C [9]: 83.4%
viability, T/C [10]: 99.7%
viability, T/C (second compound 0.0316 µM, first compound 3.16 µM): 132%
viability, T/C (second compound 0.0316 µM, first compound 10 µM): 16.8%
viability, T/C [11]: 96.9%
viability, T/C [12]: 71.1%
viability, T/C [13]: 79.6%
viability, T/C [14]: 98%
viability, T/C (second compound 0.1 µM, first compound 3.16 µM): 76.9%
viability, T/C (second compound 0.1 µM, first compound 10 µM): 7.83%
viability, T/C [15]: 76.9%
viability, T/C [16]: 65.9%
viability, T/C [17]: 57.6%
viability, T/C [18]: 77.2%
viability, T/C (second compound 0.316 µM, first compound 3.16 µM): 59.2%
viability, T/C (second compound 0.316 µM, first compound 10 µM): 3.73%
viability, T/C [19]: 38.5%
viability, T/C [20]: 34.6%
viability, T/C [21]: 35.7%
viability, T/C [22]: 54.8%
viability, T/C (second compound 1 µM, first compound 3.16 µM): 47.5%
viability, T/C (second compound 1 µM, first compound 10 µM): 0.18%
viability, T/C [23]: 41.5%
viability, T/C [24]: 34.3%
viability, T/C [25]: 31.2%
viability, T/C [26]: 47.8%
viability, T/C (second compound 3.16 µM, first compound 3.16 µM): 32.4%
viability, T/C (second compound 3.16 µM, first compound 10 µM): 0.49%
viability, T/C [27]: 29.4%
viability, T/C [28]: 33.3%
viability, T/C [29]: 30%
viability, T/C [30]: 30.2%
viability, T/C (second compound 10 µM, first compound 3.16 µM): 21.6%
viability, T/C (second compound 10 µM, first compound 10 µM): 0.36%

IC50 [1]: > 100 nM
IC50 [2]: > 100 nM
IC50 [3]: 36.7 nM
IC50 [4]: < 0.316 nM
IC50 [5]: < 0.316 nM
IC50 [6]: < 0.316 nM
Compound: Cn1ncnc1[C@H]1c2n[nH]c(=O)c3cc(F)cc(c23)N[C@@H]1c1ccc(F)cc1 + CNC(=O)c1ccc(Nc2nc(OC3CCCC3)c3c(-c4ccc5nc(C)oc5c4)c[nH]c3n2)c(OC)c1
viability, T/C (second compound 0.0316 µM, first compound 0.000316 µM): 78.7%
viability, T/C (second compound 0.0316 µM, first compound 0.001 µM): 102%
viability, T/C [31]: 84.3%
viability, T/C [32]: 96.9%
viability, T/C [7]: 90.4%
viability, T/C [8]: 82.6%
viability, T/C (second compound 0.1 µM, first compound 0.000316 µM): 96.5%
viability, T/C (second compound 0.1 µM, first compound 0.001 µM): 88.6%
viability, T/C [33]: 81.3%
viability, T/C [34]: 90.8%
viability, T/C [11]: 84.8%
viability, T/C [12]: 58.9%
viability, T/C (second compound 0.316 µM, first compound 0.000316 µM): 69.7%
viability, T/C (second compound 0.316 µM, first compound 0.001 µM): 65%
viability, T/C [35]: 70.4%
viability, T/C [36]: 77.9%
viability, T/C [15]: 51.4%
viability, T/C [16]: 40.5%
viability, T/C (second compound 1 µM, first compound 0.000316 µM): 46.1%
viability, T/C (second compound 1 µM, first compound 0.001 µM): 45.1%
viability, T/C [37]: 42.3%
viability, T/C [38]: 49.3%
viability, T/C [19]: 46%
viability, T/C [20]: 24.6%
viability, T/C (second compound 3.16 µM, first compound 0.000316 µM): 38.9%
viability, T/C (second compound 3.16 µM, first compound 0.001 µM): 31.4%
viability, T/C [39]: 38.4%
viability, T/C [40]: 42.6%
viability, T/C [23]: 38.6%
viability, T/C [24]: 28.7%
viability, T/C (second compound 10 µM, first compound 0.000316 µM): 33.4%
viability, T/C (second compound 10 µM, first compound 0.001 µM): 31.8%
viability, T/C [41]: 32.9%
viability, T/C [42]: 48%
viability, T/C [27]: 28.9%
viability, T/C [28]: 26.8%

IC50 [1]: < 3.16 nM
IC50 [2]: 4.57 nM
IC50 [3]: < 3.16 nM
IC50 [4]: < 3.16 nM
IC50 [5]: < 3.16 nM
IC50 [6]: < 3.16 nM
Compound: CCc1c2c(nc3ccc(O)cc13)-c1cc3c(c(=O)n1C2)COC(=O)[C@]3(O)CC + CNC(=O)c1ccc(Nc2nc(OC3CCCC3)c3c(-c4ccc5nc(C)oc5c4)c[nH]c3n2)c(OC)c1
viability, T/C [31]: 45.2%
viability, T/C [32]: 30.2%
viability, T/C [7]: 23.5%
viability, T/C [8]: 17.9%
viability, T/C [9]: 8.37%
viability, T/C [10]: 1.73%
viability, T/C [33]: 59.9%
viability, T/C [34]: 28.5%
viability, T/C [11]: 18.2%
viability, T/C [12]: 16.5%
viability, T/C [13]: 8.07%
viability, T/C [14]: 3%
viability, T/C [35]: 34.3%
viability, T/C [36]: 29.1%
viability, T/C [15]: 16.8%
viability, T/C [16]: 13.8%
viability, T/C [17]: 6.27%
viability, T/C [18]: 1.02%
viability, T/C [37]: 34%
viability, T/C [38]: 20.6%
viability, T/C [19]: 10.7%
viability, T/C [20]: 8.46%
viability, T/C [21]: 2.97%
viability, T/C [22]: 0.31%
viability, T/C [39]: 31.6%
viability, T/C [40]: 16.2%
viability, T/C [23]: 12.2%
viability, T/C [24]: 6.75%
viability, T/C [25]: 4.2%
viability, T/C [26]: 0.54%
viability, T/C [41]: 29.3%
viability, T/C [42]: 19.5%
viability, T/C [27]: 11.5%
viability, T/C [28]: 5.96%
viability, T/C [29]: 2.11%
viability, T/C [30]: 0.68%

IC50 (curve of compound): > 10000 nM
Compound: C#Cc1c(F)ccc2cc(O)cc(-c3ncc4c(N5CC6CCC(C5)N6)nc(OCC56CCCN5CC(F)C6)nc4c3F)c12 (stereo not drawn)
viability, T/C (compound 0.0316 µM): 97% and 82.7%
viability, T/C (compound 0.1 µM): 90.4% and 83.7%
viability, T/C (compound 0.316 µM): 100% and 88%
viability, T/C (compound 1 µM): 80% and 85.2%
viability, T/C (compound 3.16 µM): 87.3% and 82.6%
viability, T/C (compound 10 µM): 87.5% and 88%
